In patent US7749731B2, “Methods for recombinant peptide production” (XOMA Technology Ltd., priority 1999, dated 2010):

Columns and labels:
Test in all cases: Broth microdilution antifungal assay
Format in all cases: cell-based
Conditions in all cases: Sabouraud dextrose broth, 30° C., 48 hours
[1] = system: C. glabrata 2001
Procedure: (§1) For example, studies were performed to evaluate the antifungal activity of the recombinant peptide from pING4702 purified according to Example 6 in a broth microdilution assay using four strains of C. albicans, C. glabrata and S. cerevisiae. A similar peptide, XMP.391, that was chemically synthesized, was included in the assay as a positive control. To perform the broth microdilution assay, the fungal cultures were grown overnight at 30° C. in YPD medium (1% yeast extract, 2% peptone, and 2% dextrose). A 400 fold dilution of each culture in YPD was then made, and grown at 30° C. for 8 hours. Three mL of each culture were collected by centrifugation and suspended in 0.9% NaCl to an A600 of about 0.3. These cultures were further diluted to 1×10^4 CFU/mL in Sabouraud dextrose broth (6 mL). Recombinant peptide was in 5 mM acetate, 150 mM NaCl, pH 5.0 at a concentration of about 2 mg/mL. Synthetic peptide was at about 1 mg/mL. Samples were serially diluted and added to microtiter plates containing the cultures. Plates were incubated at 30° C. for 48 hours before growth inhibition was measured.

[2] = system: C. albicans SLU1
Procedure: as §1

[3] = system: C. albicans 26555
Procedure: as §1

[4] = system: S. cerevisiae 9763
Procedure: as §1

[5] = system: C. albicans 14053
Procedure: as §1

[6] = system: C. albicans 10231
Procedure: as §1

Row | Substance | Concentration that gives 95% inhibition [1] [µM] | Concentration that gives 95% inhibition [2] [µM] | Concentration that gives 95% inhibition [3] [µM] | Concentration that gives 95% inhibition [4] [µM] | Concentration that gives 95% inhibition [5] [µM] | Concentration that gives 95% inhibition [6] [µM]
1 | XMP.391: Chemically synthesized 12 amino acid BPI-derived peptide (Lys Val Gly Trp Leu Ile Gln Leu Phe His Lys Lys), positive control (KVGWLIQLFHKK; printed: Lys Val Gly Trp Leu Ile Gln Leu Phe His Lys Lys) | 30 | 13.5 | 16 | 2.0 | 16 | 16
2 | Recombinant Peptide: BPI-derived peptide (SEQ ID NO: 3) acid-released from the Bone D-Asp-Pro-Pro-peptide fusion protein encoded by pING4702, purified according to Example 6 (KVGWLIQLFHKK; Human) | 30 | 16 | 30 | 7.5 | 16 | 30
